The values below come from US20060122240A1, “Benzotriazoles and methods of prophylaxis or treatment of metabolic-related disorders thereof” (Arena Pharmaceuticals, Inc., priority 2002, published 2006).

Common to all, as to format: cell-based
One experiment deals with primary human adipocytes. In words: Inhibition of isoproterenol stimulated lipolysis in human subcutaneous adipocytes. The following applies: isoproterenol 100 nM, adipocyte primary cultures from human subcutaneous fat, FIG. 2.
The target of the next experiment is T1, hRUP25 (Homo sapiens, UniProt Q8TDS4).
T1 construct: expressed in transfected cells; host or cells: CHO cells
The experiment in a line: Adenylyl cyclase assay in CHO cells expressing hRUP25. To be noted: FIG. 1 screening data. An excerpt:
FIG. 1. FIG. 1 presents screening data via adenylyl cyclase assay for hRUP38. […] 1-Isopropyl-1H-benzotriazole-5-carboxylic acid has no effect on CHO cells expressing hRUP25.
A modified Flash Plate™ Adenylyl Cyclase kit (New England Nuclear; Cat. No. SMP004A) was utilized for direct identification of candidate compounds as agonists to hRUP38 (Seq. Id. Nos. 1 & 2) or hRUP25 (Seq. Id. Nos. 3 & 4) in accordance with the following protocol: […]

The target of a further experiment is T2, hRUP38 (Homo sapiens, UniProt P49019).
T2 construct: expressed in transfected cells
The experiment in a line: Adenylyl cyclase / cAMP Whole Cell assay in CHO cells stably transfected with hRUP38. As for the experimental part:
A modified Flash Plate™ Adenylyl Cyclase kit (New England Nuclear; Cat. No. SMP004A) was utilized for direct identification of candidate compounds as agonists to hRUP38 (Seq. Id. Nos. 1 & 2) or hRUP25 (Seq. Id. Nos. 3 & 4) in accordance with the following protocol:
CHO cells stably transfected with hRUP38 were harvested from flasks via non-enzymatic means. The cells were washed in PBS and resuspended in the manufacturer's Assay Buffer. […] To these wells, 100,000 cells in 50 μl of Assay Buffer were added and the mixture was then incubated for 30 minutes at room temperature, with gentle shaking. Following the incubation, 100 μl of Detection Buffer was added to each well, followed by incubation for 2-24 hours. Plates were counted in a Wallac MicroBeta™ plate reader using “Prot. #31” (as per manufacturer instructions).

Usually EC50 stands for the concentration needed to bring the measured effect to its halfway point.

Each structure is given as a SMILES string. Entries after “also recorded” stand apart in the source; their conditions may differ. Read-outs that look alike come from different tables or passages of the source.

T2 sequence (P49019 whole entry K94N/T173P/F198L/H253R/I317M/I346M): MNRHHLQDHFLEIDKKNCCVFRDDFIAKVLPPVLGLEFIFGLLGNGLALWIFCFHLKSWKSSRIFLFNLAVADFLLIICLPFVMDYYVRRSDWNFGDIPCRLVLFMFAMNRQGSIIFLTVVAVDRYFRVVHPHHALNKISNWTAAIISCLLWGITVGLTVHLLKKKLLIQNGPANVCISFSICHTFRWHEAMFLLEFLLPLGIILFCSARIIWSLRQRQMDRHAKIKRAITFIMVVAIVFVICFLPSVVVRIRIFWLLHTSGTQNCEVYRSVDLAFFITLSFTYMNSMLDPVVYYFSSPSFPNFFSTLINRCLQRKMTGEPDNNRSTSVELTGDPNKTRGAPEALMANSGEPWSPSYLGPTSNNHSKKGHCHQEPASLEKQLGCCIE
T1 sequence (Q8TDS4 whole entry): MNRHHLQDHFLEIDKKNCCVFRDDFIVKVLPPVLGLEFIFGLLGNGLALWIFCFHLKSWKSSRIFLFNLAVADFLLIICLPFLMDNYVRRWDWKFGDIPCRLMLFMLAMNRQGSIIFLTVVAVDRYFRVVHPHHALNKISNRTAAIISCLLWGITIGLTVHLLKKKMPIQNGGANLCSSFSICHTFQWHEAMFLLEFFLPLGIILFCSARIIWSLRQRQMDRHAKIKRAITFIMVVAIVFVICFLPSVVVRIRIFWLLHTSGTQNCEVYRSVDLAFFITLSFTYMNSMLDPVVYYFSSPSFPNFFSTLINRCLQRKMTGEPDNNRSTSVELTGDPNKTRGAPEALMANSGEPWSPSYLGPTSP

For `CC(C)n1nnc2cc(C(=O)O)ccc21` [Example 6.1, 1-Isopropyl-1H-benzotriazole-5-carboxylic acid], in the experiment with primary human adipocytes, the “inhibition of isoproterenol stimulated lipolysis” value is given as “dose-dependent manner comparable to that of nicotinic acid; also recorded: dose-dependant manner comparable to that of nicotinic acid”. Moreover, the “effect on CHO cells expressing hRUP25” value at hRUP25 is given as “no effect”. Besides, the EC50 on hRUP38 (average of seven (7) trials, read-out: hRUP38 (EC50) cAMP Whole Cell) came to 388 nM; on hRUP38 (inhibition of forskolin stimulated cAMP, hRUP38-expressing CHO cells, read-out: EC50, adenylyl cyclase assay for hRUP38 (FIG. 1)) it was 166 nM.
